Data taken from patent publication US20040234610A1, “Medical device and method for inhalation of aerosolized drug with heliox” (priority 2001, published 2004).

Experiments:
[1] = test system: asthma patients; experiment: Pilot study, albuterol nebulized with heliox vs oxygen through open mouthpiece and T-piece system, spirometry; assay type: in vivo, human; conditions: open mouthpiece and T-piece adapter system
Description: A pilot study was conducted using an open system, including a mouthpiece and T-piece adapter ([…], Allegiance Healthcare Corp., McGaw Park, Ill.), to nebulize albuterol.

[2] = Nebulized particle size distribution by Anderson Cascade Impactor, Y design, drug suspension and different heliox flow rates; assay type: physicochemical
Description: Additional tests were performed with the ACI described in Example 3 in order to assess the device's ability to nebulize a liquid drug suspension and to assess various heliox flow rate combinations. […]

[3] = 6-6 lpm heliox (nebulizer-side port)
[4] = 10-10 lpm heliox (nebulizer-side port)
[5] = 10-18 lpm heliox (nebulizer-side port)
[6] = 18-0 lpm heliox (nebulizer-side port)
[7] = 18-10 lpm heliox (nebulizer-side port)
[8] = trial 6-6: heliox 6 L/min nebulizer, 6 L/min side port
[9] = trial 10-10: heliox 10 L/min nebulizer, 10 L/min side port
[10] = trial 10-18: heliox 10 L/min nebulizer, 18 L/min side port
[11] = trial 18-0: heliox 18 L/min nebulizer, 0 L/min side port
[12] = trial 18-10: heliox 18 L/min nebulizer, 10 L/min side port

With `CC(C)(C)NCC(O)c1ccc(O)c(CO)c1` (stereo not drawn) [albuterol] the “differences in spirometry between heliox and oxygen albuterol nebulization” value [1] was “no differences in spirometry between heliox and oxygen albuterol nebulization were detected”, the “0.7 ≦ Mean Fraction < 5.8 μm” value [2, 3] was 0.755 and the “Mean Fraction < 0.7 μm” value [2, 3] was 0.112. The “Mean Fraction ≧ 5.8 μm” value [2, 3] was 0.134, the “0.7 ≦ Mean Fraction < 5.8 μm” value [2, 4] was 0.773 and the “Mean Fraction < 0.7 μm” value [2, 4] was 0.159. The “Mean Fraction ≧ 5.8 μm” value [2, 4] was 0.068, the “0.7 ≦ Mean Fraction < 5.8 μm” value [2, 5] was 0.626 and the “Mean Fraction < 0.7 μm” value [2, 5] was 0.306. The “Mean Fraction ≧ 5.8 μm” value [2, 5] was 0.068, the “0.7 ≦ Mean Fraction < 5.8 μm” value [2, 6] was 0.658 and the “Mean Fraction < 0.7 μm” value [2, 6] was 0.224. The “Mean Fraction ≧ 5.8 μm” value [2, 6] was 0.118, the “0.7 ≦ Mean Fraction < 5.8 μm” value [2, 7] was 0.609 and the “Mean Fraction < 0.7 μm” value [2, 7] was 0.317. The “Mean Fraction ≧ 5.8 μm” value [2, 7] was 0.075, the “Fraction, Adapter” value [2, 8] was 0.033 and the “Fraction, Collar” value [2, 8] was 0.034. The “Fraction, Filter (cut size <0.40 μm)” value [2, 8] was 0.045, the “Fraction, Stage 0 (cut size 9.00 μm, midpt 10.70 μm)” value [2, 8] was 0.023 and the “Fraction, Stage 1 (cut size 5.80 μm, midpt 7.22 μm)” value [2, 8] was 0.015. The “Fraction, Stage 2 (cut size 4.70 μm, midpt 5.22 μm)” value [2, 8] was 0.013, the “Fraction, Stage 3 (cut size 3.30 μm, midpt 3.94 μm)” value [2, 8] was 0.042 and the “Fraction, Stage 4 (cut size 2.10 μm, midpt 2.63 μm)” value [2, 8] was 0.171. The “Fraction, Stage 6 (cut size 0.70 μm, midpt 0.88 μm)” value [2, 8] was 0.130, the “Fraction, Stage 7 (cut size 0.40 μm, midpt 0.53 μm)” value [2, 8] was 0.067 and the “Fraction, Tee Piece” value [2, 8] was 0.015. For the same molecule, the “Fraction, Throat (USP) (cut size >9.00 μm, midpt 24.49 μm)” value (shortened to “Fraction, Throat (USP)”) [2, 8] was 0.013, the “Fraction, Adapter” value [2, 9] was 0.018 and the “Fraction, Collar” value [2, 9] was 0.018. For the same molecule, the “Fraction, Filter (cut size <0.40 μm)” value [2, 9] was 0.053, the “Fraction, Stage 0 (cut size 9.00 μm, midpt 10.70 μm)” value [2, 9] was 0.012 and the “Fraction, Stage 1 (cut size 5.80 μm, midpt 7.22 μm)” value [2, 9] was 0.011. For the same molecule, the “Fraction, Stage 2 (cut size 4.70 μm, midpt 5.22 μm)” value [2, 9] was 0.002, the “Fraction, Stage 4 (cut size 2.10 μm, midpt 2.63 μm)” value [2, 9] was 0.171 and the “Fraction, Stage 6 (cut size 0.70 μm, midpt 0.88 μm)” value [2, 9] was 0.202. For the same molecule, the “Fraction, Stage 7 (cut size 0.40 μm, midpt 0.53 μm)” value [2, 9] was 0.106, the “Fraction, Tee Piece” value [2, 9] was 0.009 and the “Fraction, Throat (USP)” value [2, 9] was 0.002. For the same molecule, the “Fraction, Adapter” value [2, 10] was 0.015, the “Fraction, Collar” value [2, 10] was 0.011 and the “Fraction, Filter (cut size <0.40 μm)” value [2, 10] was 0.113. The “Fraction, Stage 0 (cut size 9.00 μm, midpt 10.70 μm)” value [2, 10] was 0.011, the “Fraction, Stage 1 (cut size 5.80 μm, midpt 7.22 μm)” value [2, 10] was 0.006 and the “Fraction, Stage 2 (cut size 4.70 μm, midpt 5.22 μm)” value [2, 10] was 0.007. The “Fraction, Stage 3 (cut size 3.30 μm, midpt 3.94 μm)” value [2, 10] was 0.008, the “Fraction, Stage 4 (cut size 2.10 μm, midpt 2.63 μm)” value [2, 10] was 0.077 and the “Fraction, Stage 6 (cut size 0.70 μm, midpt 0.88 μm)” value [2, 10] was 0.232. The “Fraction, Stage 7 (cut size 0.40 μm, midpt 0.53 μm)” value [2, 10] was 0.192, the “Fraction, Tee Piece” value [2, 10] was 0.024 and the “Fraction, Throat (USP)” value [2, 10] was 0.001. For the same molecule, the “Fraction, Adapter” value [2, 11] was 0.027, the “Fraction, Collar” value [2, 11] was 0.011 and the “Fraction, Filter (cut size <0.40 μm)” value [2, 11] was 0.088. For the same molecule, the “Fraction, Stage 0 (cut size 9.00 μm, midpt 10.70 μm)” value [2, 11] was 0.026, the “Fraction, Stage 1 (cut size 5.80 μm, midpt 7.22 μm)” value [2, 11] was 0.047 and the “Fraction, Stage 2 (cut size 4.70 μm, midpt 5.22 μm)” value [2, 11] was 0.013. The “Fraction, Stage 3 (cut size 3.30 μm, midpt 3.94 μm)” value [2, 11] was 0.029, the “Fraction, Stage 4 (cut size 2.10 μm, midpt 2.63 μm)” value [2, 11] was 0.124 and the “Fraction, Stage 6 (cut size 0.70 μm, midpt 0.88 μm)” value [2, 11] was 0.184. For the same molecule, the “Fraction, Stage 7 (cut size 0.40 μm, midpt 0.53 μm)” value [2, 11] was 0.137, the “Fraction, Tee Piece” value [2, 11] was 0.005 and the “Fraction, Throat (USP)” value [2, 11] was 0.002. For the same molecule, the “Fraction, Adapter” value [2, 12] was 0.009, the “Fraction, Collar” value [2, 12] was 0.012 and the “Fraction, Filter (cut size <0.40 μm)” value [2, 12] was 0.106. The “Fraction, Stage 0 (cut size 9.00 μm, midpt 10.70 μm)” value [2, 12] was 0.011, the “Fraction, Stage 1 (cut size 5.80 μm, midpt 7.22 μm)” value [2, 12] was 0.026 and the “Fraction, Stage 2 (cut size 4.70 μm, midpt 5.22 μm)” value [2, 12] was 0.006. The “Fraction, Stage 3 (cut size 3.30 μm, midpt 3.94 μm)” value [2, 12] was 0.016, the “Fraction, Stage 4 (cut size 2.10 μm, midpt 2.63 μm)” value [2, 12] was 0.066 and the “Fraction, Stage 6 (cut size 0.70 μm, midpt 0.88 μm)” value [2, 12] was 0.207. For the same molecule, the “Fraction, Stage 7 (cut size 0.40 μm, midpt 0.53 μm)” value [2, 12] was 0.211, the “Fraction, Tee Piece” value [2, 12] was 0.016 and the “Fraction, Throat (USP)” value [2, 12] was 0.001.
